Three compounds from publication PMC11475369, “Exploring the Potential of Synthetic Cannabinoids: Modulation of Biological Activity of Normal and Cancerous Human Colon Epithelial Cells” (Cells, 2024) can be followed below.

The subject of assay [1] is HT29 cells. Description: Flow cytometry (PI) cell cycle analysis of HT29 cells. It counts as cell-based, human. The settings on record: HT29, 25 μg/mL, 24 h. The protocol:
(§1) In the flow cytometric study, we assessed the impact of the cannabinoids at a concentration of 25 μg/mL on the distribution of cell cycle phases in the normal and cancer cells after 24 h incubation. Both adhered, and non-adsorbed (floating) cells were used to perform the analyses. They were collected after 24 h of incubation with the tested cannabinoids and centrifuged (3000 rpm/5 min.). Next, the cell pellet was rinsed and suspended in PBS w/o Ca^2+ and Mg^2+ ions and centrifuged again (3000 rpm/5 min.). The cell pellet was suspended and fixed in 70% ethanol (1 mL). Untreated cells served as a control. The cells were stored at −20 °C for 1 week. After that time, in accordance with the manufacturer protocol, the cells were subjected to the PI staining procedure (PI/RNase Staining Buffer, BD PharmingenTM, BD Biosciences, San Jose, CA, USA). Briefly, 1 mL of PBS w/o Ca^2+ and Mg^2+ ions was added to 1 mL of ethanol and incubated with gentle stirring for 5 min. at room temperature. Next, the cells were centrifuged (3000 rpm/5 min.) and suspended in PBS w/o Ca^2+ and Mg^2+ ions with gentle stirring for 5 min. at room temperature. The cells were centrifuged once again (3000 rpm/5 min.) and the cell pellet was suspended in 500 μL of PI/RNase Staining Buffer. The incubation was carried out for 15 min. at room temperature. Finally, the intensity of the PI fluorescence was measured using FACS Calibur (BD Pharmingen^TM). The obtained data were analyzed using Cell Quest Pro Version 6.0. for the Macintosh operating system (BD Pharmingen^TM). The percentage of cells in the appropriate phases of the cycle was calculated based on all analyzed gated cells. A total of 10,000 events were measured per sample.
On the technique in general: A flow cytometer gives signals particle by particle.

A short description of assay [2]: Ferric-reducing antioxidant power assay (FRAP). As to the method:
The antioxidant activity in the FRAP method determines the ability of the analyzed compounds to reduce iron ions. This allowed for the direct determination of the reducing capacity of the tested cannabinoids. The principle of the method was based on measuring the reduction in the tPtZ compound (iron-2,4,6-tripyridyl-S-[…] complex) under the influence of the cannabinoids. The following concentrations of the cannabinoids were prepared: 25, 100, and 200 μg/mL in Milli-Q water. […] The procedure was carried out as follows: each compound, at a concentration of 1 mL, was mixed with 1 mL of 0.2 M sodium phosphate buffer (pH 6.6) and 1 mL of 1% potassium ferricyanide. The mixture was vortexed and incubated for 30 min. at 37 °C. After the incubation, 1 mL of 10% trichloroacetic acid (w/v) was added to each sample, and the preparations were centrifuged at 1000 g for 5 min. Next, an equal volume of Milli-Q water and the upper layer of the samples (1 mL + 1 mL) were mixed with 100 μL of 0.1% ferric chloride and subjected to spectrophotometric reading at 700 nm using an EL800 Universal Microplate Reader (BioTek Instruments, Winooski, VT, USA). The higher the absorbance, the higher the iron ion-reducing activity of the tested cannabinoids is.

The nature of assay [3]: DPPH free radical scavenging test. As to the method:
The DPPH biochemical test is used to determine the antioxidant potential of tested compounds. This method is based on the ability of compounds to reduce the stable dark purple 2,2-diphenyl-1-picrylhydrazyl radical (DPPH) to yellow diphenyl-picrylhydrazine. The following concentrations of the tested cannabinoids were prepared: 25, 100, and 200 μg/mL in pure ethanol. Next, the DPPH solution (0.2 mg/mL in ethanol) was prepared. As a quantitative standard, Trolox in increasing concentrations (1–50 μg/mL) was prepared in ethanol. The procedure was carried out as follows: 100 µL of the specified concentrations of the tested cannabinoids or standard points were added to the wells of a 96-well plate in eight replicates. Next, 100 μL of a DPPH solution was added to 100 μL of each sample or standard in a 96-well plate. Subsequently, 20 min. incubation at room temperature was carried out, and spectrophotometric reading was performed at 515 nm using an EL800 Universal Microplate Reader (BioTek Instruments, Winooski, VT, USA). Decreasing absorbance meant increasing antioxidant activity of the preparations. The final value of the free radical scavenging activity of the cannabinoids was calculated based on the standard curve and the following formula:DPPH scavenging effect (%) = [(Xcontrol − Xcompound/Xcontrol) × 100]
Xcontrol is the absorbance of the control, and Xcompound is the absorbance in the presence of cannabinoids

The test system of the next assay is CCD 841 CoTr cells. Description: Flow cytometry (PI) cell cycle analysis of CCD 841 CoTr cells. The note with it: 25 μg/mL, 24 h. In kind it is cell-based, human. The protocol: as §1
Assay [4] has as its system HT29 cells. Nature of the assay: MTT assay, metabolic activity of HT29 cells. The note with it: Homo sapiens, HT-29; HT29 colon tumor cells, 24 h incubation; read-out: IC50 Values (MTT method). It counts as cell-based. As to the method: The HT29 cell line (ATCC no. HTB-38) (human colon adenocarcinoma) was used in the present study. Cells were cultivated in RPMI 1640 culture medium with 10% fetal calf serum (FCS) (GibcoTM, Paisley, UK), supplemented with antibiotics (100 U/mL penicillin and 100 μg/mL streptomycin) (Sigma, St. Louis, MO, USA). The cell culture was performed in standard conditions, i.e., at 37 °C in a humidified atmosphere with 5% CO2. The CCD 841 CoTr cell line (ATCC no. CRL-1807) (human normal colon epithelium) was cultivated in RPMI 1640 +DMEM (1:1) medium (Sigma, St. Louis, MO, USA) with 10% FCS and the addition of antibiotics. The culture was carried out at 34 °C in a 5% CO2/95% air atmosphere.
After seeding (1 × 10^5 cells/mL) in a 96-well plate, the cells were incubated for 24 h. Thereafter, the tested compounds (100 μL) at a concentration range of 0–200 μg/mL in the culture medium were added to the wells (100 μL). The incubation lasted for 24 h. After that time, an MTT solution (5 mg/mL, 25 μL/well) was added to each well. The incubation was continued for another 3 h. After the incubation, 10% sodium dodecyl sulfate (SDS) in 0.01 M HCl (100 μL) was added in order to dissolve the purple formazan crystals. Solubilization was carried out overnight. Finally, spectrophotometric measurement was performed at 570 nm using an EL800 Universal Microplate Reader (BioTek Instruments, Winooski, VT, USA).

Where [5] appears, read: cannabinoid concentration 25 μg/mL.
The mark [6] stands for this setting: cannabinoid concentration 100 μg/mL.
[7] abbreviates: cannabinoid concentration 200 μg/mL.

Values after ≈ are worked out from the molar mass of the structure shown. Values joined by “and” are separate entries in the source; they are usually repeats but may differ in a detail not shown here. Equal entries are not always repeated.

Usually IC50 stands for the midpoint of a concentration-inhibition curve. In the case of `CCCCCc1cc(O)cc(O)c1C/C=C(\C)CCC=C(C)C` [abn-CBG, abnormal cannabigerol], the “Increase in the number of cells in the sub-G1 phase compared to the control” value (shortened to “Increase in the number of cells”) in the assay with HT29 cells [1] is reported as 80.59%; in the assay with CCD 841 CoTr cells, 53.97%. The “Percentage of cells in G1 phase” value with HT29 cells [1] was 7.97 ± 0.35 %; in the assay on CCD 841 CoTr cells, 11.63 ± 0.83 %. Further, the “Percentage of cells in G2 phase” value is on record as 3.62 ± 0.54 % in the assay on HT29 cells [1] and 3.46 ± 0.79 % in the assay with CCD 841 CoTr cells. In addition, the “Percentage of cells in S phase” value in the assay on HT29 cells [1] was determined as 5.09 ± 0.50 %; with CCD 841 CoTr cells it was 8.24 ± 0.56 %. Also, the “Percentage of cells in sub-G1 phase” value was 81.92 ± 1.80 % with HT29 cells [1] and 76.10 ± 2.21 % in the assay with CCD 841 CoTr cells. Besides, the “Reduction Value Corresponding to the Ascorbic Acid Concentration (FRAP)” value (“Reduction Value Corresponding … (FRAP)” below) in assay [2] (setting [5]) is 0.857 ± 0.316 µg/mL; in assay [2] (setting [6]), 1.059 ± 0.328 µg/mL; in assay [2] (setting [7]), 1.411 µg/mL and 1.411 ± 0.465 µg/mL. Moreover, the “Reduction Value Corresponding to the Trolox Concentration (DPPH)” value (“Reduction Value Corresponding … (DPPH)” below) in assay [3] (setting [5]) amounted to 0.074 ± 0.056 µg/mL; in assay [3] (setting [6]) it was 0.216 ± 0.133 µg/mL; in assay [3] (setting [7]), 0.264 ± 0.198 µg/mL. In addition, the IC50 with HT29 cells [4] is 19.6 µg/mL (≈ 62 µM).

Regarding `CCCCCc1cc(O)c2c(c1)OC(C)(CCC=C(C)C)C=C2` (centres unmarked) [CBC, cannabichromene], in the assay with HT29 cells [1], the “Increase in the number of cells” value is 1.19%, the “Percentage of cells in G1 phase” value is given as 50.90 ± 0.73%, the “Percentage of cells in G2 phase” value worked out at 26.23 ± 0.39 % and the “Percentage of cells in S phase” value is 16.71 ± 0.37%. Moreover, in the assay on HT29 cells [1], the “Percentage of cells in sub-G1 phase” value came out at 2.52 ± 0.10 % and the “Reduction in the number of cells in the G2 phase compared to the control” value is given as 3.24%. Also, the “Reduction Value Corresponding … (FRAP)” value in assay [2] (setting [5]) came out at 0.151 ± 0.001 µg/mL. For the same compound, in assay [2] (setting [6]), the “Reduction Value Corresponding … (FRAP)” value turned out to be 0.453 ± 0.104 µg/mL. The “Reduction Value Corresponding … (FRAP)” value in assay [2] (setting [7]) is 1.008 ± 0.403 µg/mL. In assay [3] (setting [5]), the “Reduction Value Corresponding … (DPPH)” value came out at 0 µg/mL. Also, in assay [3] (setting [6]), the “Reduction Value Corresponding … (DPPH)” value is 0 µg/mL. Moreover, the “Reduction Value Corresponding … (DPPH)” value in assay [3] (setting [7]) came out at 0.487 ± 0.341 µg/mL. In addition, in assay [3] (lower concentrations (<100 μg/mL)), the “Activity in reducing the free oxygen radical DPPH (in words)” value is given as “did not express any activity”. In the assay with CCD 841 CoTr cells, the “Effect on cell cycle transitions (in words)” value (from here on “Effect”) is “limited the transition of cells from the S to G2 phase”, the “Percentage of cells in G1 phase” value was determined as 32.31 ± 0.62%, the “Percentage of cells in G2 phase” value is recorded as 22.78 ± 0.86% and the “Percentage of cells in S phase” value stood at 23.38 ± 0.79 %. In the assay with CCD 841 CoTr cells, the “Percentage of cells in sub-G1 phase” value stood at 15.17 ± 0.79 % and the “Reduction in the number of cells in the sub-G1 phase compared to the control” value turned out to be 6.96%. The IC50 with HT29 cells [4] amounted to 176 µg/mL (≈ 560 µM).

With `CCCCCc1cc2c3c(c1)OC(C)(C)C1CCC(C)(CC31)O2` (centres unmarked) [CBT, cannabicitran], in the assay on HT29 cells [1], the “Effect” value was “limited the transition of cells from the S phase to the G2 phase”, the “Increase in the number of cells” value turned out to be 17.93%, the “Percentage of cells in G1 phase” value came to 41.86 ± 0.64 % and the “Percentage of cells in G2 phase” value was 17.90 ± 0.81 %. In addition, in the assay with HT29 cells [1], the “Percentage of cells in S phase” value was found to be 18.64 ± 0.81 % and the “Percentage of cells in sub-G1 phase” value came to 19.26 ± 0.67 %. In assay [2] (setting [5]), the “Reduction Value Corresponding … (FRAP)” value was determined as 0.353 ± 0.110 µg/mL. The “Reduction Value Corresponding … (FRAP)” value in assay [2] (setting [6]) is 0.353 ± 0.201 µg/mL. In assay [2] (setting [7]), the “Reduction Value Corresponding … (FRAP)” value stood at 0.504 ± 0.258 µg/mL. Moreover, the “Reduction Value Corresponding … (DPPH)” value in assay [3] (setting [5]) was 0.280 µg/mL and 0.280 ± 0.190 µg/mL. In addition, the “Reduction Value Corresponding … (DPPH)” value in assay [3] (setting [6]) worked out at 0.487 ± 0.104 µg/mL. Besides, in assay [3] (setting [7]), the “Reduction Value Corresponding … (DPPH)” value was 0.593 µg/mL and 0.593 ± 0.278 µg/mL. Also, in the assay on CCD 841 CoTr cells, the “Effect” value is “caused the accumulation of cells in the S phase”, the “Increase in the number of cells” value is 6.71%, the “Percentage of cells in G1 phase” value is recorded as 28.81 ± 0.86 % and the “Percentage of cells in G2 phase” value stood at 16.54 ± 0.72 %. In addition, in the assay with CCD 841 CoTr cells, the “Percentage of cells in S phase” value is listed as 22.23 ± 0.15 % and the “Percentage of cells in sub-G1 phase” value is recorded as 28.84 ± 0.66 %. Also, the IC50 in the assay with HT29 cells [4] is 69.1 µg/mL (≈ 220 µM).
